{"source": "paper PMC11565396", "about": "(Journal of Lipid Research, 2024)", "target": "EBOV VP40 (6xHis-VP40) (Ebola virus - Mayinga, Zaire, 1976, UniProt Q05128)", "sequence (Q05128 whole entry, looked up)": "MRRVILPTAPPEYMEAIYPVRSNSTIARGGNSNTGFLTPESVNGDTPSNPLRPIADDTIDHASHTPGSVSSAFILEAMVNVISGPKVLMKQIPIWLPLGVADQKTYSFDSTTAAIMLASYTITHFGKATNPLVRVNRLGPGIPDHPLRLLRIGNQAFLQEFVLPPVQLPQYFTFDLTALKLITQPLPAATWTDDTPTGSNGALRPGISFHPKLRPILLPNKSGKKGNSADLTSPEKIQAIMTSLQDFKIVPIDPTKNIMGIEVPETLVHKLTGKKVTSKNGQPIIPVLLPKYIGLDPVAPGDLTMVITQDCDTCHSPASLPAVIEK", "experiment": "biochemical", "assay_type": "binding", "note": "Like-named read-outs stand apart in the source and are kept apart here."}
{"smiles": "CCCCCCCC/C=C\\CCCCCCCC(=O)OC[C@H](COP(=O)(O)OC[C@H](N)C(=O)O)OC(=O)CCCCCCC/C=C\\CCCCCCCC", "note": "[DOPS]", "values": [{"measurement": "Kd", "setting": "read-out: Kd (apparent)", "result": 311, "unit": "nM"}]}
{"smiles": "CCCCCCCCCCCCCCCC(=O)OCC(COP(=O)(O)OC[C@H](N)C(=O)O)OC(=O)CCCCCCCCCCCCCCC", "note": "(stereo partly drawn) [DPPS]", "values": [{"measurement": "Kd", "setting": "read-out: Kd (apparent)", "result": 10, "unit": "nM"}]}
{"smiles": "CCCCCCCC/C=C\\CCCCCCCC(=O)O[C@H](COC(=O)CCCCCCCCCCCCCCC)COP(=O)(O)OC[C@H](N)C(=O)O", "note": "[POPS]", "values": [{"measurement": "Kd", "result": 186, "unit": "nM"}]}
